pIC50: −log10 of the molar value.
Experiments:
CDK2/Cyclin E1(14-475) = CDK2/Cyclin E1(14-475) (Homo sapiens, UniProt P24941); assay: Caliper LabChip EZ Reader mobility shift assay, inhibition of CDK2/Cyclin E1 activity; format: biochemical; conditions: class symbols A-D
Method in brief: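 Mobility-shift readout of fluorescent peptide (1.5 μM final) phosphorylation by 2.5 nM CDK2/Cyclin E1(14-475) at 100 μM ATP, pH 7.5. Compounds pre-incubated 30 min with enzyme before substrate addition; 100-min reaction halted by EDTA, normalized % activity fitted to four-parameter curve for IC50.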

Kuramochi cells = assay: BrdU cell proliferation assay (colorimetric ELISA), Kuramochi cells; format: cell-based; conditions: class symbols A-D
Method in brief: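 Proliferation was read as BrdU incorporation: a 1 h pulse, then fixation and peroxidase-antibody ELISA at 450 nm, with values normalized to DMSO after empty-well subtraction. Treatment lasted 4 days on Kuramochi cells seeded at 2,000/well, using four 3-fold compound dilutions from 10 mM stocks. RB^KO Kuramochi cells were run in parallel for specificity.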

Compound | pIC50 (CDK2/Cyclin E1(14-475)) | pIC50 (Kuramochi cells)
CNC(=O)[C@H](CCCc1ccc(F)cc1)NC(=O)C1CN(C(=O)Cc2c[nH]c3cc(Cl)ccc23)CC2CN(C(=O)c3ccc(OC(C)C)c(OC)c3)CC21 (stereo partly shown) [I-144] | 5.30 to 6.30 | < 5.00
COc1cc(C(=O)N2CC3CN(C(=O)Cc4c[nH]c5cc(Cl)ccc45)CC(C(=O)NC(CCCc4ccccc4)c4ncco4)C3C2)ccc1OC(C)C (stereo not shown) [I-149] | 5.30 to 6.30 | < 5.00
COc1cc(C(=O)N2CC3CN(C(=O)Cc4c[nH]c5cc(Cl)ccc45)CC(C(=O)NC(CCCc4ccccc4)c4ccccn4)C3C2)ccc1OC(C)C (stereo not shown) [I-150] | 5.30 to 6.30 | 5.00 to 5.30
COc1cc(C(=O)N2CC3CN(C(=O)Cc4c[nH]c5cc(Cl)ccc45)CC(C(=O)NC(CCCc4ccccc4)c4ncccn4)C3C2)ccc1OC(C)C (stereo not shown) [I-151] | ≥ 6.30 | 5.30 to 6.30
CNC(=O)[C@H](CCCc1ccccc1)NC(=O)C1CN(C(=O)Cc2ccccc2)CC2CN(C(=O)c3ccc(OC(C)C)c(OC)c3)CC21 (stereo partly drawn) [I-154, 2-(4-isopropoxy-3-methoxybenzoyl)-N—((S)-1-(methylamino)-1-oxo-5-phenylpentan-2-yl)-5-(2-phenylacetyl)octahydro-1H-pyrrolo[3,4-c]pyridine-7-carboxamide] | < 5.00 | < 5.00
CNC(=O)[C@H](CCCc1ccccc1)NC(=O)C1CN(C(=O)Cc2ccccn2)CC2CN(C(=O)c3ccc(OC(C)C)c(OC)c3)CC21 (stereo partly shown) [I-155] | < 5.00 | < 5.00
CNC(=O)[C@H](CCCc1ccccc1)NC(=O)C1CN(C(=O)Cn2cnc3cc(Cl)ccc32)CC2CN(C(=O)c3ccc(OC(C)C)c(OC)c3)CC21 (stereo partly shown) [I-156] | 5.30 to 6.30 | < 5.00
CNC(=O)[C@H](CCCc1ccccc1)NC(=O)C1CN(C(=O)CCc2c[nH]c3ccccc23)CC2CN(C(=O)c3ccc(OC(C)C)c(OC)c3)CC21 (stereo partly shown) [I-157] | < 5.00 | < 5.00
CNC(=O)[C@H](CCCc1ccccc1)NC(=O)C1CN(C(=O)c2ccc3ncccc3c2)CC2CN(C(=O)c3ccc(OC(C)C)c(OC)c3)CC21 (stereo partly shown) [I-158] | < 5.00 | < 5.00
CNC(=O)[C@H](CCCc1ccccc1)NC(=O)C1CN(C(=O)c2cn(C)c3ccccc23)CC2CN(C(=O)c3ccc(OC(C)C)c(OC)c3)CC21 (stereo partly shown) [I-159] | < 5.00 | < 5.00
CNC(=O)[C@H](CCCc1ccccc1)NC(=O)C1CN(C(=O)c2cc3ccccc3cn2)CC2CN(C(=O)c3ccc(OC(C)C)c(OC)c3)CC21 (stereo partly shown) [I-160] | < 5.00 | < 5.00
CNC(=O)[C@H](CCCc1ccccc1)NC(=O)C1CN(C(=O)Cn2ccc3ccccc32)CC2CN(C(=O)c3ccc(OC(C)C)c(OC)c3)CC21 (stereo partly shown) [I-161] | < 5.00 | < 5.00
CNC(=O)[C@H](CCCc1ccccc1)NC(=O)C1CN(C(=O)c2cc3cc(C)ccc3[nH]2)CC2CN(C(=O)c3ccc(OC(C)C)c(OC)c3)CC21 (stereo partly shown) [I-162] | < 5.00 | < 5.00
CNC(=O)[C@H](CCCc1ccccc1)NC(=O)C1CN(C(=O)c2cnc(OC)cn2)CC2CN(C(=O)c3ccc(OC(C)C)c(OC)c3)CC21 (stereo partly shown) [I-163] | < 5.00 | < 5.00
CNC(=O)[C@H](CCCc1ccccc1)NC(=O)C1CN(C(=O)CCc2ccccn2)CC2CN(C(=O)c3ccc(OC(C)C)c(OC)c3)CC21 (stereo partly shown) [I-164] | < 5.00 | < 5.00
CNC(=O)[C@H](CCCc1ccccc1)NC(=O)C1CN(C(=O)c2ccc3nccnc3c2)CC2CN(C(=O)c3ccc(OC(C)C)c(OC)c3)CC21 (stereo partly shown) [I-165] | < 5.00 | < 5.00
CNC(=O)[C@H](CCCc1ccccc1)NC(=O)C1CN(C(=O)c2coc(C)n2)CC2CN(C(=O)c3ccc(OC(C)C)c(OC)c3)CC21 (stereo partly shown) [I-166] | < 5.00 | < 5.00
CNC(=O)[C@H](CCCc1ccccc1)NC(=O)C1CN(C(=O)Cc2ccc3ncccc3c2)CC2CN(C(=O)c3ccc(OC(C)C)c(OC)c3)CC21 (stereo partly shown) [I-167] | < 5.00 | < 5.00
CNC(=O)[C@H](CCCc1ccccc1)NC(=O)C1CN(C(=O)c2cc(-c3ccccc3)n[nH]2)CC2CN(C(=O)c3ccc(OC(C)C)c(OC)c3)CC21 (stereo partly shown) [I-168] | < 5.00 | < 5.00
CNC(=O)[C@H](CCCc1ccccc1)NC(=O)C1CN(C(=O)C2(C)CCOCC2)CC2CN(C(=O)c3ccc(OC(C)C)c(OC)c3)CC21 (stereo partly shown) [I-169] | < 5.00 | < 5.00

Further lines, with some results ahead:

pIC50 (CDK2/Cyclin E1(14-475)) | Compound | pIC50 (Kuramochi cells)
< 5.00 | CNC(=O)[C@H](CCCc1ccccc1)NC(=O)C1CN(C(=O)c2cc3cccc(C)c3[nH]2)CC2CN(C(=O)c3ccc(OC(C)C)c(OC)c3)CC21 (stereo partly shown) [I-170] | < 5.00
< 5.00 | CNC(=O)[C@H](CCCc1ccccc1)NC(=O)C1CN(C(=O)c2[nH]ccc2C)CC2CN(C(=O)c3ccc(OC(C)C)c(OC)c3)CC21 (stereo partly shown) [I-171] | < 5.00
< 5.00 | CNC(=O)[C@H](CCCc1ccccc1)NC(=O)C1CN(C(=O)c2c[nH]c3cc(Cl)ccc23)CC2CN(C(=O)c3ccc(OC(C)C)c(OC)c3)CC21 (stereo partly shown) [I-172] | < 5.00
5.30 to 6.30 | CNC(=O)[C@H](CCCc1ccccc1)NC(=O)C1CN(C(=O)Cc2c[nH]c3ccc(F)cc23)CC2CN(C(=O)c3ccc(OC(C)C)c(OC)c3)CC21 (stereo partly shown) [I-173] | < 5.00
5.30 to 6.30 | CNC(=O)[C@H](CCCc1ccccc1)NC(=O)C1CN(C(=O)Cc2c[nH]c3cc(F)ccc23)CC2CN(C(=O)c3ccc(OC(C)C)c(OC)c3)CC21 (stereo partly shown) [I-174] | < 5.00
< 5.00 | CNC(=O)[C@H](CCCc1ccccc1)NC(=O)C1CN(C(=O)Cc2c[nH]c3c(C)cccc23)CC2CN(C(=O)c3ccc(OC(C)C)c(OC)c3)CC21 (stereo partly shown) [I-175] | < 5.00
< 5.00 | CNC(=O)[C@H](CCCc1ccccc1)NC(=O)C1CN(C(=O)Cc2c[nH]c3cccc(OC)c23)CC2CN(C(=O)c3ccc(OC(C)C)c(OC)c3)CC21 (stereo partly shown) [I-176] | < 5.00
< 5.00 | CNC(=O)[C@H](CCCc1ccccc1)NC(=O)C1CN(C(=O)C(C)(C)c2c[nH]c3ccccc23)CC2CN(C(=O)c3ccc(OC(C)C)c(OC)c3)CC21 (stereo partly shown) [I-177] | < 5.00
< 5.00 | CNC(=O)[C@H](CCCc1ccccc1)NC(=O)C1CN(C(=O)Cc2cccc3[nH]ccc23)CC2CN(C(=O)c3ccc(OC(C)C)c(OC)c3)CC21 (stereo partly shown) [I-178] | < 5.00
< 5.00 | CNC(=O)[C@H](CCCc1ccccc1)NC(=O)C1CN(C(=O)Cc2c[nH]c3ncccc23)CC2CN(C(=O)c3ccc(OC(C)C)c(OC)c3)CC21 (stereo partly shown) [I-179] | < 5.00
< 5.00 | CNC(=O)[C@H](CCCc1ccccc1)NC(=O)C1CN(C(=O)c2cccc3[nH]ccc23)CC2CN(C(=O)c3ccc(OC(C)C)c(OC)c3)CC21 (stereo partly shown) [I-180] | < 5.00
< 5.00 | CNC(=O)[C@H](CCCc1ccccc1)NC(=O)C1CN(C(=O)c2cnc3ccccc3c2)CC2CN(C(=O)c3ccc(OC(C)C)c(OC)c3)CC21 (stereo partly shown) [I-181] | < 5.00
< 5.00 | CNC(=O)[C@H](CCCc1ccccc1)NC(=O)C1CN(C(=O)c2n[nH]c3ccccc23)CC2CN(C(=O)c3ccc(OC(C)C)c(OC)c3)CC21 (stereo partly shown) [I-182] | < 5.00
< 5.00 | CNC(=O)[C@H](CCCc1ccccc1)NC(=O)C1CN(C(=O)c2cc(C)[nH]n2)CC2CN(C(=O)c3ccc(OC(C)C)c(OC)c3)CC21 (stereo partly shown) [I-183] | < 5.00
< 5.00 | CNC(=O)[C@H](CCCc1ccccc1)NC(=O)C1CN(C(=O)c2ccc(C)cn2)CC2CN(C(=O)c3ccc(OC(C)C)c(OC)c3)CC21 (stereo partly shown) [I-184] | < 5.00
< 5.00 | CNC(=O)[C@H](CCCc1ccccc1)NC(=O)C1CN(C(=O)c2sc(C)nc2C)CC2CN(C(=O)c3ccc(OC(C)C)c(OC)c3)CC21 (stereo partly shown) [I-185] | < 5.00
< 5.00 | CNC(=O)[C@H](CCCc1ccccc1)NC(=O)C1CN(C(=O)Cc2nnn[nH]2)CC2CN(C(=O)c3ccc(OC(C)C)c(OC)c3)CC21 (stereo partly shown) [I-186] | < 5.00
< 5.00 | CNC(=O)[C@H](CCCc1ccccc1)NC(=O)C1CN(C(=O)c2ocnc2C)CC2CN(C(=O)c3ccc(OC(C)C)c(OC)c3)CC21 (stereo partly shown) [I-187] | < 5.00
< 5.00 | CNC(=O)[C@H](CCCc1ccccc1)NC(=O)C1CN(C(=O)c2oc(C)nc2C)CC2CN(C(=O)c3ccc(OC(C)C)c(OC)c3)CC21 (stereo partly shown) [I-188] | < 5.00
< 5.00 | CNC(=O)[C@H](CCCc1ccccc1)NC(=O)C1CN(C(=O)c2ccc(C)[nH]2)CC2CN(C(=O)c3ccc(OC(C)C)c(OC)c3)CC21 (stereo partly shown) [I-189] | < 5.00
< 5.00 | CNC(=O)[C@H](CCCc1ccccc1)NC(=O)C1CN(C(=O)c2c[nH]c3ccc(F)cc23)CC2CN(C(=O)c3ccc(OC(C)C)c(OC)c3)CC21 (stereo partly shown) [I-190] | < 5.00
< 5.00 | CNC(=O)[C@H](CCCc1ccccc1)NC(=O)C1CN(C(=O)c2c[nH]c3c(C)cccc23)CC2CN(C(=O)c3ccc(OC(C)C)c(OC)c3)CC21 (stereo partly shown) [I-191] | < 5.00
< 5.00 | CNC(=O)[C@H](CCCc1ccccc1)NC(=O)C1CN(C(=O)CCCc2ccccn2)CC2CN(C(=O)c3ccc(OC(C)C)c(OC)c3)CC21 (stereo partly shown) [I-192] | < 5.00
< 5.00 | CNC(=O)[C@H](CCCc1ccccc1)NC(=O)C1CN(C(=O)c2ncoc2C)CC2CN(C(=O)c3ccc(OC(C)C)c(OC)c3)CC21 (stereo partly shown) [I-193] | < 5.00
< 5.00 | CNC(=O)[C@H](CCCc1ccccc1)NC(=O)C1CN(C(=O)c2ncc(Cl)cn2)CC2CN(C(=O)c3ccc(OC(C)C)c(OC)c3)CC21 (stereo partly shown) [I-196] | < 5.00
< 5.00 | CNC(=O)[C@H](CCCc1ccccc1)NC(=O)C1CN(C(=O)c2cc(Cl)[nH]n2)CC2CN(C(=O)c3ccc(OC(C)C)c(OC)c3)CC21 (stereo partly shown) [I-197] | < 5.00
< 5.00 | CNC(=O)[C@H](CCCc1ccccc1)NC(=O)C1CN(C(=O)Cc2cc[nH]n2)CC2CN(C(=O)c3ccc(OC(C)C)c(OC)c3)CC21 (stereo partly shown) [I-198] | < 5.00
